Test results published in US20250082752A1, “COMPOUNDS, TARGETS, AND METHODS FOR MODULATING LYTIC GRANULE CONVERGENCE IN CYTOTOXIC CELLS TO PROMOTE BYSTANDER KILLING IN CELLULAR THERAPIES” (THE TRUSTEES OF COLUMBIA UNIVERSITY IN THE CITY OF NEW YORK, priority 2022, published 2025).

Tests used:
Format in all cases: cell-based
YTS cells [1] = assay: Number of MTOC (alpha-tubulin hyper densities) in YTS cells treated with PLK4 inhibitors; details: 5 days, Centrinone 5 nM or CFI400495 50 nM
Description: (§1) Centrinone and CFI400495 are high affinity and selective PLK4 inhibitors that induce depletion of the centrosome and cell cycle arrest. YTS cells were treated for 5 days with Centrinone 5 nM or CFI400495 50 nM. […] For this experiment, 5×10^5 cells/ml YTS cells were incubated during 5 days Centrinone 5 nM or CFI400495 50 nM, every 24 hours the media were replaced with fresh media containing similar amounts of the drug. On day 5, cells were assessed by microscopy for gamma-tubulin or alpha-tubulin.

YTS cells [2] = assay: CD107a degranulation of treated YTS cells after conjugation with 721.221 target cells; details: 5 days, Centrinone 5 nM or CFI400495 50 nM
Description: CD107a (also known as LAMP-1) is the standard to measure the process of degranulation. The more CD107a is expressed on the surface of the cell after stimulation, the more granules have been released. This is limited to the immunological synapse, in part secondary to the convergence process. CD107a upregulation is measured via flow cytometry after PMA/lonomycin activation and can be measured following target cell conjugation. […] The latter requires synapse formation and engagement of receptors for downstream activation signaling. Differences in results between these two approaches (target cell conjugation versus PMA/lonomycin) map the candidate's impact to early (synapse formation and signaling) or late (mechanics of) degranulation.
as §1

YTS cells [3] = assay: Confocal microscopy of granule dispersion in YTS cells after Centrinone or CFI400495; details: YTS cells after treatment with Centrinone or CFI400495
Description: as §1

For `COc1c(Nc2cc(C)[nH]n2)nc(Sc2ccc(S(=O)(=O)Cc3cccc([N+](=O)[O-])c3F)cc2F)nc1N1CCOCC1` [Centrinone, 2-[[2-Fluoro-4-[[(2-fluoro-3-nitrophenyl)methyl]sulfonyl]phenyl]thio]-5-methoxy-N-(5-methyl-1H-pyrazol-3-yl)-6-(4-morpholinyl)-4-pyrimidinamine], the “number of MTOC (alpha Tubulin hyper densities)” value (YTS cells [1]) was “increase number of mTOC”, the “degranulation (CD107a expression)” value (YTS cells [2]) was “increases degranulation” and the “granule dispersion (confocal microscopy images)” value (YTS cells [3]) was “more disperse granules”.
